In paper PMC7696755 (2020):

What was measured:
[1] = system: AT-DNA (DNA, duplex) TATATATATATATATATATATATATATATATATATATATA; assay: UV/Vis absorption titration (hypochromism); conditions: 137 mM NaCl, 2.7 mM KCl, PBS (10 mM phosphate), pH 7.4, room temperature, per base pair, intercalation, data not shown
[2] = system: AT-DNA (DNA, duplex) TATATATATATATATATATATATATATATATATATATATA; assay: UV/Vis absorption titration (302 nm, hypochromism); conditions: 137 mM NaCl, 2.7 mM KCl, PBS (10 mM phosphate), pH 7.4, room temperature, per base pair, 15 µM 8-MOP, intercalation, before irradiation

COc1c2ccoc2cc2oc(=O)ccc12
KD [1]: 180 µM

COc1c2occc2cc2ccc(=O)oc12
KD [2]: 1100 µM
